Data: PMC5636118, “Recombinant laccase from Pediococcus acidilactici CECT 5930 with ability to degrade tyramine” (PLoS ONE, 2017)

Target: T1, Lpa5930; P. acidilactici CECT 5930 laccase (D2EK17 protein) (Pediococcus acidilactici, UniProt Z9B926UHL0)
T1 construct: pET28a, E. coli BL21(DE3)/pGro7; ~60 kDa by SDS-PAGE; D2EK17 is the UniProt entry of the strain 7_4 homologue
T1 sequence (Z9B926UHL0 1-477): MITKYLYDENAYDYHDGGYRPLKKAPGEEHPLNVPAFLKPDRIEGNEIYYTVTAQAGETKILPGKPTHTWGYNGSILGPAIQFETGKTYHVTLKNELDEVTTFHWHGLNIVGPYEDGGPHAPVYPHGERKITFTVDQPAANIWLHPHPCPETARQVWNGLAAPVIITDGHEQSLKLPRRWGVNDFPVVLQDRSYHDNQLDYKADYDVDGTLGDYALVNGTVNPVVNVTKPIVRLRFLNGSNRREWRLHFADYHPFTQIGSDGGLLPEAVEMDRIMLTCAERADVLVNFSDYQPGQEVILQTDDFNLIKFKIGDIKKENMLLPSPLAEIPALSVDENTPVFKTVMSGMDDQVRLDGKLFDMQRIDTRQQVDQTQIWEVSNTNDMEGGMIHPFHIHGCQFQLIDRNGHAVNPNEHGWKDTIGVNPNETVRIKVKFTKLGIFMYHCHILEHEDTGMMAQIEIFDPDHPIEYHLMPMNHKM
Assay: ABTS oxidation, absorbance at […] nm, Michaelis-Menten fit
Type: biochemical
Conditions: acetate buffer pH 4.0, 28°C; apparent Km (abstract)

A Km of 1700 µM was found for `CCn1c(=NN=c2sc3cc(S(=O)(=O)O)ccc3n2CC)sc2cc(S(=O)(=O)O)ccc21` [ABTS, 2,2′-azino-bis(3-ethylbenzothiazoline-6-sulfonic acid)] in this work.
